ChEMBL document CHEMBL1201862, “PubChem BioAssay data set” (2004)
The source made the active and inactive calls.

Columns and labels:
[1] = target: T1, Corticotropin-releasing factor receptor 2/Corticotropin-releasing factor-binding protein (Homo sapiens, UniProt P24387+Q13324); experiment: activators of CRF receptor 2 with binding protein – uHTS hits, confirmation (AID 602473); format: functional; settings: read-out: EC50_Mean
T1 sequence (Q13324 whole entry): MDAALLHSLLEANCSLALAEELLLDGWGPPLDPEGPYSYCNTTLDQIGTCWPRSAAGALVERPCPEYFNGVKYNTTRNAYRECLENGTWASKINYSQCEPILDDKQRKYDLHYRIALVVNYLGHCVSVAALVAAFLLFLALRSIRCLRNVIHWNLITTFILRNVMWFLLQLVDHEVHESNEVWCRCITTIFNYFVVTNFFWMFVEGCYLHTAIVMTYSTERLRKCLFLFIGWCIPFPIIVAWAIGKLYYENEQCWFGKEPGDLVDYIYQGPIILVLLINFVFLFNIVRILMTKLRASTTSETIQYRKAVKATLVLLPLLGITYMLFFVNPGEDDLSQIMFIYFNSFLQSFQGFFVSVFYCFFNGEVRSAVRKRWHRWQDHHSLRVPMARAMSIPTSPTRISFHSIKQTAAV
T1 sequence (P24387 whole entry): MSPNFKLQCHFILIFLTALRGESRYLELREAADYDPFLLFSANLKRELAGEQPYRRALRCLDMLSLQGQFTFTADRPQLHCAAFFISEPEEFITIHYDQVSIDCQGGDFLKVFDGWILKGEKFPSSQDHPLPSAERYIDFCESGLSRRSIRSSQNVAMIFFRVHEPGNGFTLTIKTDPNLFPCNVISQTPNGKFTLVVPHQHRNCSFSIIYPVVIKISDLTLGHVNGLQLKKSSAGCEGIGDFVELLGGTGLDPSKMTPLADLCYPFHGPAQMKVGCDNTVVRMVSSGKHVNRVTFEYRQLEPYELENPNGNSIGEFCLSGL

[2] = viability of uninfected HEp-2 cells – cell-based, HTS, cytotoxicity control for RSV inhibitor project, dose response (AID 2410); format: functional; settings: human respiratory syncytial virus
Cytochrome P450 1A2 = target: T2, Cytochrome P450 1A2 (Homo sapiens, UniProt P05177);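 note: PubChem cytochrome P450 panel assay, CYP1A2 panel member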
T2 sequence (P05177 whole entry): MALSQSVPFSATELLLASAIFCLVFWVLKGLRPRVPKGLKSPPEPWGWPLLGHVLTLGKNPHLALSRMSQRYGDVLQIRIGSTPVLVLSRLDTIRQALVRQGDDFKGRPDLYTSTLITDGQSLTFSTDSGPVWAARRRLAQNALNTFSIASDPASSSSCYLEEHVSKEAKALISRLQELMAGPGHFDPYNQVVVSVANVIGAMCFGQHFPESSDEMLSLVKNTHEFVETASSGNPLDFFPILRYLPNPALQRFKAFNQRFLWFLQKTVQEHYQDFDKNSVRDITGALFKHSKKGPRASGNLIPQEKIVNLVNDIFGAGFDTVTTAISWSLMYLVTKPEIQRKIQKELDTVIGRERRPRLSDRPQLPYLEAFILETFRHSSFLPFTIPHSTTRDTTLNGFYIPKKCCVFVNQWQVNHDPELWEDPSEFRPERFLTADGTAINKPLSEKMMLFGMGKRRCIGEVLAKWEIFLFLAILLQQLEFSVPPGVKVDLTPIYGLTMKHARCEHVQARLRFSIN

Cytochrome P450 2C9 = Cytochrome P450 2C9 (Homo sapiens, UniProt P11712)
Chain of Cytochrome P450 2C9 (P11712 whole entry): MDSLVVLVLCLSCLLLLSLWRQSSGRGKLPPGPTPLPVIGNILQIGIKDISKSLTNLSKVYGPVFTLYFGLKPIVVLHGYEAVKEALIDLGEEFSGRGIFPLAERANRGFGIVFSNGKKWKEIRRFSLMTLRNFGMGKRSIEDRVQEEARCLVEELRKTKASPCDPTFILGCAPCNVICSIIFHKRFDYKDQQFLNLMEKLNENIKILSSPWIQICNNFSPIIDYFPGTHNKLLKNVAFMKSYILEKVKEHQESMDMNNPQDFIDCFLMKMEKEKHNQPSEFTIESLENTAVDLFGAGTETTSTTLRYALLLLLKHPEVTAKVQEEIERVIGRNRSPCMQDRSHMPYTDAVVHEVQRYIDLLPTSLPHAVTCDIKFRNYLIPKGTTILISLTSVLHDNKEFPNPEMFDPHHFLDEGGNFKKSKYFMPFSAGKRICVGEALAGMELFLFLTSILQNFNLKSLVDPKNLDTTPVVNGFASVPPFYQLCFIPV

[3] = target: T3, Replicative DNA helicase DnaB (Mycobacterium tuberculosis, UniProt P9WMR3); experiment: DnaB intein splicing inhibitors, dose response, biochemical, cell-free fluorescence (AID 449749); format: functional
T3 sequence (P9WMR3 whole entry): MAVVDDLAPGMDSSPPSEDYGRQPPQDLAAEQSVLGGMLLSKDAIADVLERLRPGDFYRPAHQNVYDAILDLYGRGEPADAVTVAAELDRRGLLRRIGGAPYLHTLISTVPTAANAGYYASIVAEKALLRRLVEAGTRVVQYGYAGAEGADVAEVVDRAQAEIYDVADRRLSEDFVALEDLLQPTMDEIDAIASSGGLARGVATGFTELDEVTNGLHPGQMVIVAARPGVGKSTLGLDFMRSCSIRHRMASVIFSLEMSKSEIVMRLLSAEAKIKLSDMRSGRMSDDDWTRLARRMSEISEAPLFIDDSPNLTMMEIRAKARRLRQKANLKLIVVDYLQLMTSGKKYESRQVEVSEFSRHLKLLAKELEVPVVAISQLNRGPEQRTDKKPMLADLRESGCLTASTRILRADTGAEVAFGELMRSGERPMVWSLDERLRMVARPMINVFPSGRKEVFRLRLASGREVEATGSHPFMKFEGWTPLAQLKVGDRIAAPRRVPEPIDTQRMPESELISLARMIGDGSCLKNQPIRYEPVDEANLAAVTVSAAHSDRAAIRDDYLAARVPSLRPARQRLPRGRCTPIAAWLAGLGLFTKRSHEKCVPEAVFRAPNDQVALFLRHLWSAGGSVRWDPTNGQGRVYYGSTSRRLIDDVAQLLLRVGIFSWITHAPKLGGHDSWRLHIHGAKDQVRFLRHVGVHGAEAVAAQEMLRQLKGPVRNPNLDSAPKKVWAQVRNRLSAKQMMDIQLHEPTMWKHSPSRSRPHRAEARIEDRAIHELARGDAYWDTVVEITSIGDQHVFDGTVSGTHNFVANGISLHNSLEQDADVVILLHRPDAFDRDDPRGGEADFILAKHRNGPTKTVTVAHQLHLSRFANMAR

Protein RecA = target: T4, Protein RecA (Mycobacterium tuberculosis, UniProt P9WHJ3); experiment: Fluorescence Cell-Free Homogeneous Dose Retest to Identify Inhibitors of RecA-Intein Splicing Activity. [Related pubchem assays (depositor defined):AID2097, AID2223, AID489010, AID492950]; format: functional
T4 sequence (P9WHJ3 whole entry): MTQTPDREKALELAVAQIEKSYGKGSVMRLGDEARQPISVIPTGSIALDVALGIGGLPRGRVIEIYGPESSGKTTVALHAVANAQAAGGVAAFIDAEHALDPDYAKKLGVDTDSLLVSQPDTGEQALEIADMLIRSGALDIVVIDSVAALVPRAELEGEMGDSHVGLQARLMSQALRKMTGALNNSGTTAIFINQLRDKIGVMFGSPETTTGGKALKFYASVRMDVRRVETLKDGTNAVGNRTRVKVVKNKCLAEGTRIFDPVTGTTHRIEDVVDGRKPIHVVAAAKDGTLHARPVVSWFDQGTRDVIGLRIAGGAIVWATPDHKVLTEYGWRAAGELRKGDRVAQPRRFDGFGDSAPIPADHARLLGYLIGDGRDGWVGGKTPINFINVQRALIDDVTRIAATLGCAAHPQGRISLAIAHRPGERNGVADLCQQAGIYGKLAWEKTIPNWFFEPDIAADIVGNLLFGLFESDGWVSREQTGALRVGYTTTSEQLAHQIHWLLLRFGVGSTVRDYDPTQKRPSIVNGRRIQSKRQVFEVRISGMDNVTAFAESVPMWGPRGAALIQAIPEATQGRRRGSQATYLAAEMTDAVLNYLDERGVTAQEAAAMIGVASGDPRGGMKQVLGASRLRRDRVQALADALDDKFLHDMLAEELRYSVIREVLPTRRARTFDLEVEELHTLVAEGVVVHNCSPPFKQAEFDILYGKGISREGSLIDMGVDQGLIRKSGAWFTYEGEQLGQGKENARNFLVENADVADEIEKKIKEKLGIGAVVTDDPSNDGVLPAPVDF

[4] = target: T5, Rac GTPase-activating protein 1 (Homo sapiens, UniProt Q9H0H5); experiment: blockers of MgcRacGAP-driven Rac1 GTP hydrolysis – biochemical, ADP Hunter fluorescence, primary and confirmatory, confirmation (AID 624330); format: functional
T5 sequence (Q9H0H5 whole entry): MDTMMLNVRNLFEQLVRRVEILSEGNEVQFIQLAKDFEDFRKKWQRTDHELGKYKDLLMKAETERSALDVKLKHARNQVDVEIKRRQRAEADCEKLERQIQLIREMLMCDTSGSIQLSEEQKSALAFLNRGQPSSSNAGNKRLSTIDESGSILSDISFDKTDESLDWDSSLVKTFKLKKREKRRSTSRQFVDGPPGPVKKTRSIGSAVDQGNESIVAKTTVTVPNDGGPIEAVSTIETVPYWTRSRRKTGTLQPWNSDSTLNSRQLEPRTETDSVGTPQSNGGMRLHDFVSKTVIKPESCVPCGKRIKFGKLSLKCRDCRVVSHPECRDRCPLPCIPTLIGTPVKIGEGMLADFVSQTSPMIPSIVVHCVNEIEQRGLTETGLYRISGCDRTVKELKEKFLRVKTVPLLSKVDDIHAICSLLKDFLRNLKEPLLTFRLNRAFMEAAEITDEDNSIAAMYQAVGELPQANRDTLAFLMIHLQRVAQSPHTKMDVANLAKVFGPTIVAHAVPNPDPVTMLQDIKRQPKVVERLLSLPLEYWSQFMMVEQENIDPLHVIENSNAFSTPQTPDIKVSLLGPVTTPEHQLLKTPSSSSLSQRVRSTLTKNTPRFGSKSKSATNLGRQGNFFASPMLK

[5] = target: T6, RNA-binding protein pos-1 (Caenorhabditis elegans, UniProt G5EF15); experiment: disruptors of C. elegans POS-1 RNA interaction – biochemical, fluorescence polarization, dose response (AID 1964);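 note: purified POS-1 fused to maltose binding protein made in E. coli; potency of compounds blocking POS-1 binding to fluorescent RNA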
T6 sequence (G5EF15 whole entry): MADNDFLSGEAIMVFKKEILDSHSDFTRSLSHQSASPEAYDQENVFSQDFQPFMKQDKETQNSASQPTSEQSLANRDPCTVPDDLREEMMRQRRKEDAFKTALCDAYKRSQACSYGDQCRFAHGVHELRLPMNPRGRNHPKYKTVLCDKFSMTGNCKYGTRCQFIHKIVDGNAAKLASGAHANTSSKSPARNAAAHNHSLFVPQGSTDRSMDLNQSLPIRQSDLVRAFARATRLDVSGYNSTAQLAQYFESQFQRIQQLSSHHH

Cytochrome P450 2C19 = Cytochrome P450 2C19 (Homo sapiens, UniProt P33261); experiment: Cytochrome panel assay with activity outcomes. Panel member name: p450-cyp2c19 Compounds with AC50 equal or less than 10 uM are considered active; format: functional; settings: read-out: AC50
Chain of Cytochrome P450 2C19 (P33261 whole entry): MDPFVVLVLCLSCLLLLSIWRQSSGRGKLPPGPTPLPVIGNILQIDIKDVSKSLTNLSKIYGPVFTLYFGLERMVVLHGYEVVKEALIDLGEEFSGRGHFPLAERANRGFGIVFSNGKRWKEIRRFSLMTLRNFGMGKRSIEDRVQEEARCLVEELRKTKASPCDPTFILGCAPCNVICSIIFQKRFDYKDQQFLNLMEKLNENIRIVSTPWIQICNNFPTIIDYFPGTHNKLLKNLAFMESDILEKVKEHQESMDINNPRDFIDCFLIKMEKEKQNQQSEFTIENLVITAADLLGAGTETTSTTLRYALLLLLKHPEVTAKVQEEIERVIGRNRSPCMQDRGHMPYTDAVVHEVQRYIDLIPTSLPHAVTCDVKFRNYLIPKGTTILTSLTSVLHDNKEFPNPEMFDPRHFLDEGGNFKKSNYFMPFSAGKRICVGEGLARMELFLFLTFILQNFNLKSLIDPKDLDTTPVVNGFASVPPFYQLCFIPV

SMILES	CC50 [2]	AC50 (Cytochrome P450 2C9)	further results
CC(=O)N1CCc2ccc(S(=O)(=O)N3CCN(C)CC3)cc21			EC50 [1]: > 53 µM (inactive)
CCn1nc(C(=O)Nc2ccccc2N2CCCC2)c2ccccc2c1=O	> 50 µM (active)		
O=S(=O)(c1ccc2c(c1)OCCO2)N1CCN(c2cccc(Cl)c2)CC1	34.9 µM (active)		
CCCCc1ccc(-c2csc(/C(C#N)=C/c3ccc(C)o3)n2)cc1		3.16 µM (inconclusive)	AC50 (Cytochrome P450 1A2): 2 µM (inconclusive)
Cc1nc2sccn2c(=O)c1S(=O)(=O)Nc1cccc(Cl)c1C			EC50 [1]: > 53 µM (inactive)
COc1ccccc1CNC(=O)CCCn1nc(C)c2c(C)n(-c3ccc(C)cc3)nc2c1=O	32 µM (active)		
CCc1sc(C(=O)Nc2ccc3c(c2)OCCO3)cc1Br	10.7 µM (active)		
Oc1ccc(C[C@H]2CNCCN2CCC23CC4CC(CC(C4)C2)C3)cc1	14.2 µM (active)		
COc1cc(OC)cc(C(=O)Nc2ccc(-c3nc4ccccc4o3)c(O)c2)c1	17.6 µM (active)		
O=C(Nc1cccc(S(=O)(=O)N2CCCCC2)c1)c1ccccc1NS(=O)(=O)c1ccc(F)cc1			EC50 [1]: > 53 µM (inactive)
Nc1ccc2[nH]c(CCCCc3nc4ccccc4[nH]3)nc2c1			AC50 [3]: > 380 µM (inactive); EC50 (Protein RecA): 16.9 µM (active); IC50 [4]: 57.3 µM (active)
CCOc1cc(C=C2C(=O)c3ccccc3C2=O)ccc1OCC(=O)Nc1ccc(C)cc1			EC50 [1]: > 53 µM (inactive)
COc1ccc(/C(O)=C/c2nc3ccccc3n(-c3ccccc3)c2=O)cc1			EC50 [1]: 7.85 µM (active)
O=C(O)[C@@H](S)[C@H](S)C(=O)O		3.98 µM (inconclusive)	
CCOc1cc(N(CC)CC)ccc1/C=C(/C#N)c1nc2ccccc2[nH]1	21.4 µM (active)		
Cc1oc(-c2ccccc2)cc1C(=O)Nc1ccc(N(C)C)cc1		25.1 µM (inconclusive)	IC50 [4]: 62.3 µM (active)
Cc1cccc(N2C(=O)/C(=C/c3ccc(N4CCN(C)CC4)o3)C(=O)NC2=S)c1C			EC50 [5]: > 300 µM (inconclusive)
CCNC(=O)CC1C(=O)N(c2ccc(F)cc2)C(=O)N1CCc1ccc(OC)cc1 (stereo not given)		0.282 µM (inconclusive)	AC50 (Cytochrome P450 2C19): 8.91 µM (inconclusive)
C=CCn1c(=O)c2ccccc2n2c(SCC(=O)N3CCCc4ccccc43)nnc12			EC50 [1]: > 53 µM (inactive)
COc1ncc2nc(-c3cccs3)c(=O)n(C)c2n1		12.6 µM (inconclusive)	
CCOP(=O)(OCC)c1nc(/C=C/c2ccccc2)oc1NCc1ccccc1		4.47 µM (inconclusive)	AC50 (Cytochrome P450 1A2): 15.8 µM (inconclusive)
O=C(CCCN1C(=O)c2cccc3cccc(c23)C1=O)N1CCN(Cc2ccc3c(c2)OCO3)CC1	43.7 µM (active)		
CCOc1ccc2nc(NC(=O)COc3ccc(N(C)S(=O)(=O)c4ccc(C)cc4)cc3)sc2c1	1.78 µM (active)		
Cc1cc(C)c(NC(=O)C[S+]([O-])CC(=O)NCCCc2ccccc2)c(C)c1 (stereo not given)		28.2 µM (inconclusive)	
COC(=O)C1=C(c2ccc(C(C)=O)cc2)C[C@@H]2CC[C@H]1N2C(=O)NCc1ccc(C(F)(F)F)cc1			EC50 [1]: 4.94 µM (active)
CCN(CC)c1ccc(/C=N/c2sc3c(c2C#N)C2CCN3CC2)c(O)c1	6.56 µM (active)		
CCc1cc2c(O)ncnc2s1		28.2 µM (inconclusive)	AC50 (Cytochrome P450 1A2): 20 µM (inconclusive)
Nc1ccc(S(=O)(=O)Nc2cnc3ccccc3n2)cc1 [SULFAQUINOXALINE SODIUM]		10 µM (inconclusive)	
